Measured values taken from patent EP0377642B1, “HERBICIDES FOR WEED CONTROL IN RICE” (E.I. DU PONT DE NEMOURS AND COMPANY, priority 1987, dated 1989).

Columns and labels:
Type in all cases: in vivo
WEED [1] = assay: Field test applied 7 DAS in direct seeded rice in the Philippines, weed cover (Table 14); conditions: 47 DAA
Excerpt: (§1) Methyl 2-[[[[(4-methoxy-6-methyl-1,3,5-triazin-2-yl)amino]carbonyl]amino]sulfonyl]benzoate (Compound 1) and mixtures thereof with other compounds were applied as a spray (using a hand sprayer) to rice (either transplanted or direct seeded) in several rice growing areas in Southeast Asia and in the U.S. Tables 1-28 contain the results of these tests and clearly exemplify the utility of this invention. The details of each application are included in the appropriate table. [drawing 2]

[2] = tested on: Barnyardgrass (Echinochloa crus-galli); assay: Field test applied 7 DAS in direct seeded rice in the Philippines, cover (Table 14); conditions: 47 DAA
Excerpt: as §1

SEDGE = assay: as above; conditions: 47 DAA
Excerpt: as §1

Cyperus difformis = assay: Herbicidal efficacy with Bensulfuron methyl and 2,4-D in Thailand (Table 18); conditions: 13 days after treatment
Excerpt: as §1

Sphenoclea zeylanica [3] = assay: as above; conditions: 13 days after treatment
Excerpt: as §1

rice [4] = assay: as above; conditions: 13 days after treatment
Excerpt: as §1

Cuperus difformis = assay: Herbicidal efficacy with Bensulfuron methyl and 2,4-D in Thailand (Table 19); conditions: 13 days after treatment
Excerpt: as §1

Sphenoclea zeylanica [5] = assay: as above; conditions: 13 days after treatment
Excerpt: as §1

rice [6] = assay: as above; conditions: 13 days after treatment
Excerpt: as §1

Cuperus iria = assay: Herbicidal efficacy with Bensulfuron methyl and 2,4-D in Thailand (Table 20); conditions: 14 days after treatment
Excerpt: as §1

FIMBRISTYLIS MILIACEA = assay: as above; conditions: 14 days after treatment
Excerpt: as §1

Ludwigia linifolia = assay: as above; conditions: 14 days after treatment
Excerpt: as §1

Sphenoclea zeylanica [7] = assay: as above; conditions: 14 days after treatment
Excerpt: as §1

rice [8] = assay: as above; conditions: 14 days after treatment
Excerpt: as §1

rice [9] = assay: Effects in combination with Bensulfuron Methyl and Thiobencarb or Pretilachlor on rice growth (Table 23); conditions: rate 25 g ai/ha; var. Koshihikari, applied 7 days after transplanting, rated 21 days after application
Excerpt: as §1

WEED [10] = assay: Effects in combination with Bensulfuron Methyl and Thiobencarb or Pretilachlor on weed control (Table 24); conditions: rate 25 g ai/ha, scale 0 to 10, treated at 1.0 leaf stage, evaluated four weeks later
Excerpt: as §1

WEED [11] = assay: Effects in combination with Bensulfuron Methyl and Thiobencarb or Pretilachlor on weed control (Table 25); conditions: rate 25 g ai/ha, scale 0 to 10, treated at 2.0 leaf stage, evaluated four weeks later
Excerpt: as §1

`COC(=O)c1ccccc1CS(=O)(=O)NC(=O)Nc1nc(OC)cc(OC)n1` [Bensulfuron methyl, methyl 2-[[[[[(4,6-dimethoxy-2-pyrimidinyl)amino]carbonyl]amino]sulfonyl]methyl]benzoate] was tested. Which “% WEED COVER” value (WEED [1]; 8.25 G AI/HA) did it give?
Its value is 29%.

What about the “% WEED COVER” value (WEED [1]; 12.0 G AI/HA) of the same molecule?
The value was 20%.

What about the “% WEED COVER” value (WEED [1]; 16.50 G AI/HA) of the same molecule?
The value was 28%.

And the “% BYG COVER” value ([2]; 8.25 G AI/HA)?
Its value is 29%.

What about the “% BYG COVER” value ([2]; 12.0 G AI/HA) of the same molecule?
The value was 17%.

What about the “% BYG COVER” value ([2]; 16.50 G AI/HA) of the same molecule?
The value was 28%.

And the “% SEDGE COVER” value (SEDGE; 8.25 G AI/HA)?
The value was 4%.

And the “% SEDGE COVER” value (SEDGE; 12.0 G AI/HA)?
Its value is 2%.

And the “% SEDGE COVER” value (SEDGE; 16.50 G AI/HA)?
Its value is 2%.

What about the “% CONTROL OR INJURY CD” value (Cyperus difformis; 10 GAI/HA) of the same molecule?
The value was 100%.

What about the “% CONTROL OR INJURY CD” value (Cyperus difformis; 15 GAI/HA) of the same molecule?
Its value is 100%.

What about the “% CONTROL OR INJURY CD” value (Cyperus difformis; 20 GAI/HA) of the same molecule?
Its value is 100%.

And the “% CONTROL OR INJURY SZ” value (Sphenoclea zeylanica [3]; 10 GAI/HA)?
The value was 99%.

And the “% CONTROL OR INJURY SZ” value (Sphenoclea zeylanica [3]; 15 GAI/HA)?
Its value is 100%.

What about the “% CONTROL OR INJURY SZ” value (Sphenoclea zeylanica [3]; 20 GAI/HA) of the same molecule?
The value was 100%.

And the “% CONTROL OR INJURY RICE” value (rice [4]; 10 GAI/HA)?
Its value is 0%.

And the “% CONTROL OR INJURY RICE” value (rice [4]; 15 GAI/HA)?
Its value is 0%.

What about the “% CONTROL OR INJURY RICE” value (rice [4]; 20 GAI/HA) of the same molecule?
The value was 0%.

And the “% CONTROL OR INJURY CD” value (Cuperus difformis; 10 GAI/HA)?
The value was 100%.

And the “% CONTROL OR INJURY CD” value (Cuperus difformis; 15 GAI/HA)?
Its value is 100%.

And the “% CONTROL OR INJURY CD” value (Cuperus difformis; 20 GAI/HA)?
Its value is 100%.

What about the “% CONTROL OR INJURY SZ” value (Sphenoclea zeylanica [5]; 10 GAI/HA) of the same molecule?
The value was 88%.

And the “% CONTROL OR INJURY SZ” value (Sphenoclea zeylanica [5]; 15 GAI/HA)?
Its value is 100%.

What about the “% CONTROL OR INJURY SZ” value (Sphenoclea zeylanica [5]; 20 GAI/HA) of the same molecule?
The value was 100%.

And the “% CONTROL OR INJURY RICE” value (rice [6]; 10 GAI/HA)?
Its value is 0%.

What about the “% CONTROL OR INJURY RICE” value (rice [6]; 15 GAI/HA) of the same molecule?
Its value is 0%.

What about the “% CONTROL OR INJURY RICE” value (rice [6]; 20 GAI/HA) of the same molecule?
The value was 0%.

And the “% CONTROL OR INJURY CI” value (Cuperus iria; 10 GAI/HA)?
Its value is 77%.

And the “% CONTROL OR INJURY CI” value (Cuperus iria; 15 GAI/HA)?
Its value is 90%.

And the “% CONTROL OR INJURY CI” value (Cuperus iria; 20 GAI/HA)?
Its value is 95%.

What about the “% CONTROL OR INJURY FM” value (FIMBRISTYLIS MILIACEA; 10 GAI/HA) of the same molecule?
Its value is 80%.

And the “% CONTROL OR INJURY FM” value (FIMBRISTYLIS MILIACEA; 15 GAI/HA)?
Its value is 100%.

What about the “% CONTROL OR INJURY FM” value (FIMBRISTYLIS MILIACEA; 20 GAI/HA) of the same molecule?
Its value is 100%.

And the “% CONTROL OR INJURY LL” value (Ludwigia linifolia; 10 GAI/HA)?
Its value is 80%.

And the “% CONTROL OR INJURY LL” value (Ludwigia linifolia; 15 GAI/HA)?
The value was 80%.

And the “% CONTROL OR INJURY LL” value (Ludwigia linifolia; 20 GAI/HA)?
Its value is 87%.

What about the “% CONTROL OR INJURY SZ” value (Sphenoclea zeylanica [7]; 10 GAI/HA) of the same molecule?
The value was 23%.

What about the “% CONTROL OR INJURY SZ” value (Sphenoclea zeylanica [7]; 15 GAI/HA) of the same molecule?
The value was 60%.

And the “% CONTROL OR INJURY SZ” value (Sphenoclea zeylanica [7]; 20 GAI/HA)?
The value was 53%.

What about the “% CONTROL OR INJURY RICE” value (rice [8]; 10 GAI/HA) of the same molecule?
Its value is 0%.

And the “% CONTROL OR INJURY RICE” value (rice [8]; 15 GAI/HA)?
Its value is 0%.

And the “% CONTROL OR INJURY RICE” value (rice [8]; 20 GAI/HA)?
Its value is 0%.

And the “CROP TOLERANCE DW (Dry weight relative to untreated check)” value (rice [9])?
Its value is 79%.

What about the “CROP TOLERANCE PH (Plant height relative to untreated check)” value (rice [9]) of the same molecule?
Its value is 89%.

And the “CROP TOLERANCE VA (Visual crop injury)” value (rice [9])?
Its value is 2.5%.

And the “WEED CONTROL RATINGS CD” value (WEED [10]; Cyperus difformis)?
The value was 1.

What about the “WEED CONTROL RATINGS CS” value (WEED [10]; Cyperus serotinus) of the same molecule?
Its value is 6.

What about the “WEED CONTROL RATINGS EO” value (WEED [10]; Echinochloa oryzicola) of the same molecule?
The value was 1.

And the “WEED CONTROL RATINGS BL” value (WEED [10]; Lindernia pyxidaria)?
Its value is 10.

What about the “WEED CONTROL RATINGS MV” value (WEED [10]; Monochoria vaginalis) of the same molecule?
Its value is 10.

And the “WEED CONTROL RATINGS SP” value (WEED [10]; Sagittaria pygmaea)?
Its value is 8.5.

And the “WEED CONTROL RATINGS SJ” value (WEED [10]; Scirpus juncoides)?
The value was 5.

And the “WEED CONTROL RATINGS CD” value (WEED [11]; Cyperus difformis)?
The value was 10.

And the “WEED CONTROL RATINGS CS” value (WEED [11]; Cyperus serotinus)?
The value was 2.

What about the “WEED CONTROL RATINGS EO” value (WEED [11]; Echinochloa oryzicola) of the same molecule?
Its value is 1.

What about the “WEED CONTROL RATINGS BL” value (WEED [11]; Lindernia pyxidaria) of the same molecule?
The value was 9.

And the “WEED CONTROL RATINGS MV” value (WEED [11]; Monochoria vaginalis)?
The value was 9.

What about the “WEED CONTROL RATINGS SP” value (WEED [11]; Sagittaria pygmaea) of the same molecule?
Its value is 8.

What about the “WEED CONTROL RATINGS SJ” value (WEED [11]; Scirpus juncoides) of the same molecule?
Its value is 5.
